Source: publication PMC9848257, “Design and synthesis of novel rigid dibenzo[b,f]azepines through ring closure technique as promising anticancer candidates against leukaemia and acting as selective topoisomerase II inhibitors and DNA intercalators” (Journal of Enzyme Inhibition and Medicinal Chemistry, 2023)

Key:
Type in all cases: cell-based
HL-60(TB) = test: NCI-60 one-dose screen, HL-60(TB); conditions: Homo sapiens, leukaemia, single dose 10 μM, read-out: Growth inhibition %
Method: (§1) Anti-proliferative effects of the counterparts 4a–g and 5a–g were screened against 60 human cancer cell lines, following the Developmental Therapeutics Program protocol, National Cancer Institute[35].
(§2) The anti-tumour activity of the fourteen synthesised congeners was investigated at the NCI against a panel of 60 cancer cell lines (NCI-60 Cell One-Dose Screen). The tested dibenzo[b,f]azepine derivatives were screened at a single dose level (10 μM), Table 1.

MOLT-4 = test: NCI-60 one-dose screen, MOLT-4; conditions: Homo sapiens; MOLT-4, leukaemia; single dose 10 μM; read-out: Growth inhibition %
Method: as §1, §2

RPMI-8226 = test: NCI-60 one-dose screen, RPMI-8226; conditions: Homo sapiens; RPMI-8226, leukaemia; single dose 10 μM; read-out: Growth inhibition %
Method: as §1, §2

EKVX = test: NCI-60 one-dose screen, EKVX; conditions: Homo sapiens, non-small cell lung cancer, single dose 10 μM, read-out: Growth inhibition %
Method: as §1, §2

HOP-62 = test: NCI-60 one-dose screen, HOP-62; conditions: Homo sapiens; HOP-62, non-small cell lung cancer; single dose 10 μM; read-out: Growth inhibition %
Method: as §1, §2

HOP-92 = test: NCI-60 one-dose screen, HOP-92; conditions: Homo sapiens; HOP-92, non-small cell lung cancer; single dose 10 μM; read-out: Growth inhibition %
Method: as §1, §2

NCI-H23 = test: NCI-60 one-dose screen, NCI-H23; conditions: Homo sapiens; NCI-H23, non-small cell lung cancer; single dose 10 μM; read-out: Growth inhibition %
Method: as §1, §2

NCI-H322M = test: NCI-60 one-dose screen, NCI-H322M; conditions: Homo sapiens, non-small cell lung cancer, single dose 10 μM, read-out: Growth inhibition %
Method: as §1, §2

NCI-H460 = test: NCI-60 one-dose screen, NCI-H460; conditions: Homo sapiens; NCI-H460, non-small cell lung cancer; single dose 10 μM; read-out: Growth inhibition %
Method: as §1, §2

COLO 205 = test: NCI-60 one-dose screen, COLO 205; conditions: Homo sapiens; COLO 205, colon cancer; single dose 10 μM; read-out: Growth inhibition %
Method: as §1, §2

HCT-116 = test: NCI-60 one-dose screen, HCT-116; conditions: Homo sapiens; HCT-116, colon cancer; single dose 10 μM; read-out: Growth inhibition %
Method: as §1, §2

HCT-15 = test: NCI-60 one-dose screen, HCT-15; conditions: Homo sapiens; HCT-15, colon cancer; single dose 10 μM; read-out: Growth inhibition %
Method: as §1, §2

HT29 = test: NCI-60 one-dose screen, HT29; conditions: Homo sapiens, HT-29; HT29, colon cancer; single dose 10 μM; read-out: Growth inhibition %
Method: as §1, §2

SW-620 = test: NCI-60 one-dose screen, SW-620; conditions: Homo sapiens; SW-620, colon cancer; single dose 10 μM; read-out: Growth inhibition %
Method: as §1, §2

SF-268 = test: NCI-60 one-dose screen, SF-268; conditions: Homo sapiens; SF-268, CNS cancer; single dose 10 μM; read-out: Growth inhibition %
Method: as §1, §2

SF-539 = test: NCI-60 one-dose screen, SF-539; conditions: Homo sapiens; SF-539, CNS cancer; single dose 10 μM; read-out: Growth inhibition %
Method: as §1, §2

MALME-3M = test: NCI-60 one-dose screen, MALME-3M; conditions: Homo sapiens, melanoma, single dose 10 μM, read-out: Growth inhibition %
Method: as §1, §2

M14 = test: NCI-60 one-dose screen, M14; conditions: Homo sapiens; M14, melanoma; single dose 10 μM; read-out: Growth inhibition %
Method: as §1, §2

SK-MEL-2 = test: NCI-60 one-dose screen, SK-MEL-2; conditions: Homo sapiens; SK-MEL-2, melanoma; single dose 10 μM; read-out: Growth inhibition %
Method: as §1, §2

SK-MEL-28 = test: NCI-60 one-dose screen, SK-MEL-28; conditions: Homo sapiens; SK-MEL-28, melanoma; single dose 10 μM; read-out: Growth inhibition %
Method: as §1, §2

OVCAR-3 = test: NCI-60 one-dose screen, OVCAR-3; conditions: Homo sapiens; OVCAR-3, ovarian cancer; single dose 10 μM; read-out: Growth inhibition %
Method: as §1, §2

OVCAR-5 = test: NCI-60 one-dose screen, OVCAR-5; conditions: Homo sapiens; OVCAR-5, ovarian cancer; single dose 10 μM; read-out: Growth inhibition %
Method: as §1, §2

OVCAR-8 = test: NCI-60 one-dose screen, OVCAR-8; conditions: Homo sapiens; OVCAR-8, ovarian cancer; single dose 10 μM; read-out: Growth inhibition %
Method: as §1, §2

SK-OV-3 = test: NCI-60 one-dose screen, SK-OV-3; conditions: Homo sapiens; SK-OV-3, ovarian cancer; single dose 10 μM; read-out: Growth inhibition %
Method: as §1, §2

786-0 = test: NCI-60 one-dose screen, 786-0; conditions: Homo sapiens; 786-0, renal cancer; single dose 10 μM; read-out: Growth inhibition %
Method: as §1, §2

A498 = test: NCI-60 one-dose screen, A498; conditions: Homo sapiens; A498, renal cancer; single dose 10 μM; read-out: Growth inhibition %
Method: as §1, §2

ACHN = test: NCI-60 one-dose screen, ACHN; conditions: Homo sapiens, renal cancer, single dose 10 μM, read-out: Growth inhibition %
Method: as §1, §2

RXF 393 = test: NCI-60 one-dose screen, RXF 393; conditions: Homo sapiens; RXF 393, renal cancer; single dose 10 μM; read-out: Growth inhibition %
Method: as §1, §2

UO-31 = test: NCI-60 one-dose screen, UO-31; conditions: Homo sapiens; UO-31, renal cancer; single dose 10 μM; read-out: Growth inhibition %
Method: as §1, §2

PC-3 = test: NCI-60 one-dose screen, PC-3; conditions: Homo sapiens; PC-3, prostate cancer; single dose 10 μM; read-out: Growth inhibition %
Method: as §1, §2

DU-145 = test: NCI-60 one-dose screen, DU-145; conditions: Homo sapiens; DU-145, prostate cancer; single dose 10 μM; read-out: Growth inhibition %
Method: as §1, §2

MCF-7 = test: NCI-60 one-dose screen, MCF-7; conditions: Homo sapiens, MCF7; MCF-7, breast cancer; single dose 10 μM; read-out: Growth inhibition %
Method: as §1, §2

MDA-MB-231-ATCC = test: NCI-60 one-dose screen, MDA-MB-231-ATCC; conditions: Homo sapiens, breast cancer, single dose 10 μM, read-out: Growth inhibition %
Method: as §1, §2

HS 578 T = test: NCI-60 one-dose screen, HS 578 T; conditions: Homo sapiens, breast cancer, single dose 10 μM, read-out: Growth inhibition %
Method: as §1, §2

Compound	inhibition at 10 µM (HL-60(TB))	inhibition at 10 µM (MOLT-4)	inhibition at 10 µM (RPMI-8226)	inhibition at 10 µM (EKVX)	inhibition at 10 µM (HOP-62)	inhibition at 10 µM (HOP-92)	inhibition at 10 µM (NCI-H23)	inhibition at 10 µM (NCI-H322M)	inhibition at 10 µM (NCI-H460)	inhibition at 10 µM (COLO 205)	inhibition at 10 µM (HCT-116)	inhibition at 10 µM (HCT-15)	inhibition at 10 µM (HT29)	inhibition at 10 µM (SW-620)	inhibition at 10 µM (SF-268)	inhibition at 10 µM (SF-539)	inhibition at 10 µM (MALME-3M)	inhibition at 10 µM (M14)	inhibition at 10 µM (SK-MEL-2)	inhibition at 10 µM (SK-MEL-28)	also measured
C1=Cc2ccccc2N(c2nnc(-c3ccccc3)o2)c2ccccc21 [Compound 5a, 2-(5 h-Dibenzo[b,f]azepin-5-yl)-5-phenyl-1,3,4-oxadiazole]	13.2%	16.5%	67.7%	< 10%	15.3%	18.3%	< 10%	50.2%	< 10%	< 10%	54.2%	< 10%	< 10%	< 10%	< 10%	< 10%	< 10%	12.1%	< 10%	28%	inhibition at 10 µM (OVCAR-3): < 10%; inhibition at 10 µM (OVCAR-5): < 10%; inhibition at 10 µM (OVCAR-8): < 10%; inhibition at 10 µM (SK-OV-3): < 10%; inhibition at 10 µM (786-0): 20%; inhibition at 10 µM (A498): < 10%; inhibition at 10 µM (ACHN): 16.7%; inhibition at 10 µM (RXF 393): < 10%; inhibition at 10 µM (UO-31): 39.4%; inhibition at 10 µM (PC-3): < 10%; inhibition at 10 µM (DU-145): 12.4%; inhibition at 10 µM (MCF-7): 14.4%; inhibition at 10 µM (MDA-MB-231-ATCC): < 10%; inhibition at 10 µM (HS 578 T): < 10%
Brc1ccc(-c2nnc(N3c4ccccc4C=Cc4ccccc43)o2)cc1 [Compound 5b, 2-(4-Bromophenyl)-5-(5H-dibenzo[b,f]azepin-5-yl)-1,3,4-oxadiazole]	34.6%	35.6%	17.5%	27.6%	22.7%	33.5%	< 10%	< 10%	63.5%	15.4%	52.2%	66.5%	18.4%	< 10%	24.7%	17.2%	< 10%	< 10%	< 10%	14.1%	inhibition at 10 µM (OVCAR-3): < 10%; inhibition at 10 µM (OVCAR-5): < 10%; inhibition at 10 µM (OVCAR-8): 28.6%; inhibition at 10 µM (SK-OV-3): < 10%; inhibition at 10 µM (786-0): 11.3%; inhibition at 10 µM (A498): 13.4%; inhibition at 10 µM (ACHN): 24.8%; inhibition at 10 µM (RXF 393): 24.9%; inhibition at 10 µM (UO-31): 33.5%; inhibition at 10 µM (PC-3): 48.5%; inhibition at 10 µM (DU-145): < 10%; inhibition at 10 µM (MCF-7): 30.5%; inhibition at 10 µM (MDA-MB-231-ATCC): 22.3%; inhibition at 10 µM (HS 578 T): 14.4%
Clc1ccc(-c2nnc(N3c4ccccc4C=Cc4ccccc43)o2)cc1 [Compound 5c, 2-(4-Chlorophenyl)-5-(5H-dibenzo[b,f]azepin-5-yl)-1,3,4-oxadiazole]	38.1%	20.4%	19.2%	20.8%	15.4%	24%	< 10%	10.5%	57.3%	< 10%	47.7%	63.5%	< 10%	< 10%	24.7%	< 10%	< 10%	< 10%	< 10%	< 10%	inhibition at 10 µM (OVCAR-3): < 10%; inhibition at 10 µM (OVCAR-5): < 10%; inhibition at 10 µM (OVCAR-8): 24%; inhibition at 10 µM (SK-OV-3): < 10%; inhibition at 10 µM (786-0): < 10%; inhibition at 10 µM (A498): 12.9%; inhibition at 10 µM (ACHN): 15.5%; inhibition at 10 µM (RXF 393): 17.9%; inhibition at 10 µM (UO-31): 33.8%; inhibition at 10 µM (PC-3): 44.1%; inhibition at 10 µM (DU-145): < 10%; inhibition at 10 µM (MCF-7): 35.6%; inhibition at 10 µM (MDA-MB-231-ATCC): 19.8%; inhibition at 10 µM (HS 578 T): < 10%
